Measured values taken from US20060205819A1, “Methods of treatment inflammatory bowel with lxr agonists” (priority 2003, published 2006).
Read-outs that look alike come from different tables or passages of the source. Marks after values point to notes of the source that are not given here.

Experiments:
LXRβ protein = molecular target: T1, LXRβ protein (Homo sapiens, UniProt P55055); assay: LXRβ / SRC-1 peptide fluorescence assay (streptavidin-APC / Europium); assay type: biochemical; conditions: 1 μM; over a background reading of 10000 fluorescence units
T1 sequence (P55055 1-460): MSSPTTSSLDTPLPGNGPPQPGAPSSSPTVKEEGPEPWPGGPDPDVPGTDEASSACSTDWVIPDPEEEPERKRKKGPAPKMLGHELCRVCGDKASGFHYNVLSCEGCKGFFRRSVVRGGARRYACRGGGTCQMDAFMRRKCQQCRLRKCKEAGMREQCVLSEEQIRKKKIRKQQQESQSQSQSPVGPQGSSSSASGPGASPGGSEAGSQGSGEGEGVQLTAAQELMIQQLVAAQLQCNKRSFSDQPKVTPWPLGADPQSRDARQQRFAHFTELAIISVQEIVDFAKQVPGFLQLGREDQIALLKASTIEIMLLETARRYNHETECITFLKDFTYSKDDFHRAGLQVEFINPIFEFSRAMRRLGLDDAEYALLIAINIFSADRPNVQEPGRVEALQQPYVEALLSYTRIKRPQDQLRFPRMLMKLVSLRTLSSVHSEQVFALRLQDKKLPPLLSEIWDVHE
Procedure: Other LXR agonists may be identified by assays such as those described in the above referenced patent applications, for example, the assays described in Examples 1 and 2 of PCT/US01/27622. Biotinylated LXRβ protein was incubated for 20-25 minutes at a concentration of 25 nM in assay buffer (50 mM KCl, 50 mM Tris-pH8, 0.1 mg/ml FAF-BSA, 10 mM DTT) with equimolar amounts of streptavidin-AlloPhycoCyanin (APC, Molecular Probes). At the same time, the biotinylated peptide comprising amino acids 675-699 of SRC-1 ([…]-CONH2) (SEQ ID NO: 5) at a concentration of 25 nM was incubated in assay buffer with a […] of streptavidin-labelled Europium (Wallac) for 20-25 minutes. After the initial incubations are completed, a 10 molar excess (250 nM) of cold biotin was added to each of the solutions to block the unattached streptavidin reagents. After 20 min at room temp, the solutions were mixed yielding a concentration of 12.5 nM for the dye-labelled LXRβ protein and SRC-1 peptide.
80 μL of the protein/peptide mixture was added to each well of an assay plate containing 20 μL of test compound. […] The plates were incubated at room temp in the dark for 4-12 hours and then counted on a Wallac Victor fluorescent plate reader. In this assay 1 μM 24(S), 25-epoxycholesterol gave a reading of 20000 fluorescence units over a background reading of 10000 fluorescence units. […]

DSS-induced colitis = DSS-induced colitis in mice, disease activity index (DAI) AUC; assay type: in vivo, BALB/c mice; conditions: for severity of DSS-induced colitis: p.o.; for AUC (0-12 day) / AUC (3-7 day) / AUC (7-10 day) / AUC (10-12 day): DAI curve AUC, 3% DSS mice, mean +/- SE; for inhibition at 3 mg/kg / inhibition at 10 mg/kg / inhibition at 30 mg/kg: Mus musculus, po, vs DSS + vehicle; for inhibition at 3 mg/kg: 3 mg/kg p.o. b.i.d.; for inhibition at 10 mg/kg: 10 mg/kg p.o. b.i.d.; for inhibition at 30 mg/kg: 30 mg/kg p.o. b.i.d.
Procedure: Female, 10-week-old BALB/c mice (Charles River Japan) were used in this study. Colitis was induced by providing drinking water containing 3% dextran sulfate sodium (DSS, ICN Biomedicals Inc., M.W.=36,000-50,000) for 5 days. The administration of DSS was discontinued on day 5, and mice were given tap water alone for 7 days until on day 12.
The disease activity index (DAI) was determined in all animals, by scoring body weight, stool consistency and rectal bleeding as described by Murthy, S. N. S. (Digestive Diseases and Sciences, 38(9) p. 1722-1734(1993)). Severity of colitis was evaluated by area under the curve (AUC) calculated based on DAI curve ranged from day 3 to day 7 (AUC (3-7 day)), from day 7 to day 10 (AUC (7-10 day)), from day 10 to day 12 (AUC (10-12 day)) and from day 0 to day 12 (AUC (0-12 day)).
Ten mice were used in each group. Compound IIa and Compound Ia were suspended in 0.5% methylcellulose (MC) solution. Compound IIa 3 or 10 or 30 mg/kg or its vehicle (0.5% MC solution) was administered orally twice a day for 12 days from day 0. Compound Ia at 50 mg/kg was administered orally once a day for 12 days from day 0. The experimental groups were set up as follows:
• 3% DSS+vehicle (0.5% MC solution) 3% DSS+Compound IIa (3 mg/kg) 3% DSS+Compound IIa (10 mg/kg) 3% DSS+Compound IIa (30 mg/kg) 3% DSS+Compound Ia (50 mg/kg) * Mice which received tap water without DSS.

[1] = read-out: Inhibition (%) of AUC (0-12 day)
[2] = read-out: Inhibition (%) of AUC (3-7 day)
[3] = read-out: Inhibition (%) of AUC (7-10 day)
[4] = read-out: Inhibition (%) of AUC (10-12 day)

SMILES: C[C@H](CC[C@@H]1OC1(C)C)[C@H]1CC[C@H]2[C@@H]3CC=C4C[C@@H](O)CC[C@]4(C)[C@H]3CC[C@]12C [24(S), 25-epoxycholesterol]
- reading (LXRβ protein): 20000 fluorescence units

SMILES: O=S(=O)(c1ccccc1)N(CC(F)(F)F)c1ccc(C(O)(C(F)(F)F)C(F)(F)F)cc1 [Compound Ia]
- severity of DSS-induced colitis (DSS-induced colitis; 50 mg/kg, q.d., significant lower AUC (3-7 day) and AUC (0-12 day) compared with vehicle-treated DSS-fed mice): inhibited the severity of DSS-induced colitis
- AUC (0-12 day) (DSS-induced colitis; 50 mg/kg p.o. q.d. 12 days): 12.33 +/− 1.40*
- AUC (3-7 day) (DSS-induced colitis; 50 mg/kg p.o. q.d. 12 days): 4.80 +/− 0.38**
- AUC (7-10 day) (DSS-induced colitis; 50 mg/kg p.o. q.d. 12 days): 4.25 +/− 0.72
- AUC (10-12 day) (DSS-induced colitis; 50 mg/kg p.o. q.d. 12 days): 1.98 +/− 0.45

SMILES: O=C(O)Cc1cccc(OCCCN(Cc2cccc(C(F)(F)F)c2Cl)CC(c2ccccc2)c2ccccc2)c1 [Compound IIa, 2-(3-{3-[[2-Chloro-3-(trifluoromethyl)benzyl](2,2-diphenylethyl)amino]propoxy}-phenyl)acetic acid]
- severity of DSS-induced colitis (DSS-induced colitis; 3, 10 and 30 mg/kg, b.i.d., significantly lower AUC compared with vehicle-treated DSS-fed mice): suppressed the severity of DSS-induced colitis
- AUC (0-12 day) (DSS-induced colitis; 3 mg/kg p.o. b.i.d. 12 days): 14.02 +/− 1.56
- AUC (3-7 day) (DSS-induced colitis; 3 mg/kg p.o. b.i.d. 12 days): 4.93 +/− 0.38**
- AUC (7-10 day) (DSS-induced colitis; 3 mg/kg p.o. b.i.d. 12 days): 5.05 +/− 0.75
- AUC (10-12 day) (DSS-induced colitis; 3 mg/kg p.o. b.i.d. 12 days): 2.73 +/− 0.55
- AUC (0-12 day) (DSS-induced colitis; 10 mg/kg p.o. b.i.d. 12 days): 11.25 +/− 1.42**
- AUC (3-7 day) (DSS-induced colitis; 10 mg/kg p.o. b.i.d. 12 days): 4.60 +/− 0.40**
- AUC (7-10 day) (DSS-induced colitis; 10 mg/kg p.o. b.i.d. 12 days): 3.70 +/− 0.62*
- AUC (10-12 day) (DSS-induced colitis; 10 mg/kg p.o. b.i.d. 12 days): 1.70 +/− 0.37
- AUC (0-12 day) (DSS-induced colitis; 30 mg/kg p.o. b.i.d. 12 days): 11.70 +/− 1.32*
- AUC (3-7 day) (DSS-induced colitis; 30 mg/kg p.o. b.i.d. 12 days): 4.70 +/− 0.36**
- AUC (7-10 day) (DSS-induced colitis; 30 mg/kg p.o. b.i.d. 12 days): 3.94 +/− 0.62
- AUC (10-12 day) (DSS-induced colitis; 30 mg/kg p.o. b.i.d. 12 days): 1.67 +/− 0.44
- inhibition at 3 mg/kg (DSS-induced colitis; [1]): 22%
- inhibition at 3 mg/kg (DSS-induced colitis; [2]): 28.2%
- inhibition at 3 mg/kg (DSS-induced colitis; [3]): 20.5%
- inhibition at 3 mg/kg (DSS-induced colitis; [4]): 14.7%
- inhibition at 10 mg/kg (DSS-induced colitis; [1]): 37.4%
- inhibition at 10 mg/kg (DSS-induced colitis; [2]): 33%
- inhibition at 10 mg/kg (DSS-induced colitis; [3]): 41.7%
- inhibition at 10 mg/kg (DSS-induced colitis; [4]): 46.9%
- inhibition at 30 mg/kg (DSS-induced colitis; [1]): 34.9%
- inhibition at 30 mg/kg (DSS-induced colitis; [2]): 31.6%
- inhibition at 30 mg/kg (DSS-induced colitis; [3]): 38%
- inhibition at 30 mg/kg (DSS-induced colitis; [4]): 47.8%
